# Paper PMC10934235, “Inhibitory Effects of the Polyphenols from the Root of Rhizophora apiculata Blume on Fatty Acid Synthase Activity and Human Colon Cancer Cells” (Molecules, 2024)
# Where two headings read alike, the source gives them in different places.
# Tests used:
# [1] = molecular target: T1, chicken liver FAS (Gallus gallus, UniProt P12276); test: FAS overall reaction, fast-binding inhibition (NADPH decrease at 340 nm); type: biochemical
# T1 construct: The purification, storage, and application of the chicken liver FAS were conducted following established procedures; from tissue; host or cells: chicken liver (chickens from Huadu Broiler Corporation, Beijing)
# T1 sequence (P12276 whole entry): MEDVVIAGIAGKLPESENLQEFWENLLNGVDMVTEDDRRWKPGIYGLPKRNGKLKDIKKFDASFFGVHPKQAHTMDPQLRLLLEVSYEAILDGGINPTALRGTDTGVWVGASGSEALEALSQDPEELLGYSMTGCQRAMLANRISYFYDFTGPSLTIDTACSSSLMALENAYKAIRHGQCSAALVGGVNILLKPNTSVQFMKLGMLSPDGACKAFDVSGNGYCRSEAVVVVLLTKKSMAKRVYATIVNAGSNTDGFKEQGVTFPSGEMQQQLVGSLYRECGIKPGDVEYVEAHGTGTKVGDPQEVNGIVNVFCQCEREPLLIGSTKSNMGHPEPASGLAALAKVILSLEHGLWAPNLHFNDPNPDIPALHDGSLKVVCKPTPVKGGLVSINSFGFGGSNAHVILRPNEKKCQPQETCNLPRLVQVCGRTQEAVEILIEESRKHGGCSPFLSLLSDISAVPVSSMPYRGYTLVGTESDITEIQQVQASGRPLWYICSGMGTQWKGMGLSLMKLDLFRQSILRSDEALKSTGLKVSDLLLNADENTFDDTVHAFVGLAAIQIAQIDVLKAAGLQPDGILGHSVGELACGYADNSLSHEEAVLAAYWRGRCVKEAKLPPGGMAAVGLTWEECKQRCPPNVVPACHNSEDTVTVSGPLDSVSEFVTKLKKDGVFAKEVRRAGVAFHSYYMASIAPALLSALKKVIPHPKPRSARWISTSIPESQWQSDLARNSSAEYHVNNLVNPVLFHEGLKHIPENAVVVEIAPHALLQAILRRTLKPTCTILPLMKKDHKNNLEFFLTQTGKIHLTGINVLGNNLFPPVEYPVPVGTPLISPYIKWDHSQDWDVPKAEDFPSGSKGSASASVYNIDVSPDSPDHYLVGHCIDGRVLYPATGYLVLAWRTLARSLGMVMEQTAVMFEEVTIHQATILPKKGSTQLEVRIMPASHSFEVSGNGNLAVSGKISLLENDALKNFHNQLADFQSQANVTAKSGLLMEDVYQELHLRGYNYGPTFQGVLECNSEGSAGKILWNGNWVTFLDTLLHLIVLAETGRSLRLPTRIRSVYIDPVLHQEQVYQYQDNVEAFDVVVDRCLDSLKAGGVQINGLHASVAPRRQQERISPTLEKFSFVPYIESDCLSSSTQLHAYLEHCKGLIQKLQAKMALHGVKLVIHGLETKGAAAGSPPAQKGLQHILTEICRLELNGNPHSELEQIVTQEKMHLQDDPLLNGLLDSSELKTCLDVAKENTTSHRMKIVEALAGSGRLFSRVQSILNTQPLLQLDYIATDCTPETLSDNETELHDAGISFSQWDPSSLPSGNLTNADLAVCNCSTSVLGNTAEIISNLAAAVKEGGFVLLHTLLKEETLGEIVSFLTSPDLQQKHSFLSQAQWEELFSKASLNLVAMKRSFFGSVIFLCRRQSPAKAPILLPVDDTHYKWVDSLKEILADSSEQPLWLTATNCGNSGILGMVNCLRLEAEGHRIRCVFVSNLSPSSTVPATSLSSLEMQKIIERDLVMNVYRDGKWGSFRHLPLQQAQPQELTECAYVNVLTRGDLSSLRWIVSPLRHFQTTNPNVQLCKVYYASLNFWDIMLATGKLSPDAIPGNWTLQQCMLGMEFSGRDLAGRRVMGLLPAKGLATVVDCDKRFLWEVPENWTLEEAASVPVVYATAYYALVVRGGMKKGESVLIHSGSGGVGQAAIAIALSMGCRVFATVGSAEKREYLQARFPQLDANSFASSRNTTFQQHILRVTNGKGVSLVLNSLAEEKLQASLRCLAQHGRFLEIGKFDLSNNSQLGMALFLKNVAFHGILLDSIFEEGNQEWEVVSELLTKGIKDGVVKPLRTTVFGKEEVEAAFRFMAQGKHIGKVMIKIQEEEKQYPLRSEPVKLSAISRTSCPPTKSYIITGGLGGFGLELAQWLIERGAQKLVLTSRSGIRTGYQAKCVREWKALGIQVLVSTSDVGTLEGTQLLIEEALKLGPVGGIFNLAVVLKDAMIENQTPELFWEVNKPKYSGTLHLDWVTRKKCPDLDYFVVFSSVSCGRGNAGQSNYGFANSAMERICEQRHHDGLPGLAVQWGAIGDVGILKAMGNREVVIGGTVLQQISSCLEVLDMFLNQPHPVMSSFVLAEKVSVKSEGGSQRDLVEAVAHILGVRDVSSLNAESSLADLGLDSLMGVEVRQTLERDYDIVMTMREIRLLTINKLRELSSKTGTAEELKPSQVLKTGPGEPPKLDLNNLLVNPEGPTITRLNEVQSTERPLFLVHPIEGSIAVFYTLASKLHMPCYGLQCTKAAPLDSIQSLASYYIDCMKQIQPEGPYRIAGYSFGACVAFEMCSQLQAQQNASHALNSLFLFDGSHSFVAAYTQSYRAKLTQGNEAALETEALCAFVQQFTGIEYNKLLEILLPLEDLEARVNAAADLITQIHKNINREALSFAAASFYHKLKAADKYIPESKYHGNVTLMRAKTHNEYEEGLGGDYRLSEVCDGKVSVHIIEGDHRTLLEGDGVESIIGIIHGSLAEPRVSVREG
# Experimental: (§1) The FAS employed in this study was sourced from chicken liver, given that the amino acid sequence of chicken FAS shares 63% identity with its human counterpart. The chickens were purchased from Huadu Broiler Corporation, Beijing, China. The purification, storage, and application of the chicken liver FAS were conducted following established procedures. Animal procedures adhered to the Guidelines for the Care and Use of Laboratory Animals as set forth by the Beijing Association for Laboratory Animal Science. […] Concentrations of the enzyme and substrates were determined through absorption measurements, with extinction coefficients being utilized as previously outlined.
# (§2) The overall reaction of FAS and the β-ketoacyl reduction facilitated by KR (a functional domain of FAS) were assessed using an Amersham Pharmacia Ultrospec 4300 pro UV-Vis spectrophotometer (GE Healthcare China Company, Beijing, China) at 37 °C by monitoring the decrease of NADPH at 340 nm. The overall reaction mixture comprised potassium phosphate buffer (100 mM, pH 7.0), ethylenediaminetetraacetic acid (EDTA) (1 mM), 1,4-dithiothreitol (DTT) (1 mM), acetyl-CoA (6 µM), malonyl-CoA (12 µM), NADPH (37.5 µM), and chicken liver FAS (10 µg), with a total volume of 2.0 mL. For the KR reaction, the mixture included ethyl acetoacetate (40 mM), NADPH (35 µM), 1 mM of EDTA, and the enzyme (15 µg) in 100 mM of phosphate buffer at pH 7.0, with a total volume of 2.0 mL [41].
# (§3) The extent of inhibition was quantified by determining the IC50 value through a plot of residual activity against varying inhibitor concentrations.
# [2] = molecular target: T2, intracellular FAS activity in CaCo2 cells (Homo sapiens, UniProt P49327); test: Intracellular FAS activity assay; type: cell-based; details: LR 60 µg/mL, 24 h
# T2 construct: the cells were sonicated at 4 °C and centrifuged at 12,000 rpm for 15 min at 4 °C to obtain particle-free supernatants; endogenous in cells; host or cells: CaCo2, LoVo, SW620
# T2 sequence (P49327 whole entry): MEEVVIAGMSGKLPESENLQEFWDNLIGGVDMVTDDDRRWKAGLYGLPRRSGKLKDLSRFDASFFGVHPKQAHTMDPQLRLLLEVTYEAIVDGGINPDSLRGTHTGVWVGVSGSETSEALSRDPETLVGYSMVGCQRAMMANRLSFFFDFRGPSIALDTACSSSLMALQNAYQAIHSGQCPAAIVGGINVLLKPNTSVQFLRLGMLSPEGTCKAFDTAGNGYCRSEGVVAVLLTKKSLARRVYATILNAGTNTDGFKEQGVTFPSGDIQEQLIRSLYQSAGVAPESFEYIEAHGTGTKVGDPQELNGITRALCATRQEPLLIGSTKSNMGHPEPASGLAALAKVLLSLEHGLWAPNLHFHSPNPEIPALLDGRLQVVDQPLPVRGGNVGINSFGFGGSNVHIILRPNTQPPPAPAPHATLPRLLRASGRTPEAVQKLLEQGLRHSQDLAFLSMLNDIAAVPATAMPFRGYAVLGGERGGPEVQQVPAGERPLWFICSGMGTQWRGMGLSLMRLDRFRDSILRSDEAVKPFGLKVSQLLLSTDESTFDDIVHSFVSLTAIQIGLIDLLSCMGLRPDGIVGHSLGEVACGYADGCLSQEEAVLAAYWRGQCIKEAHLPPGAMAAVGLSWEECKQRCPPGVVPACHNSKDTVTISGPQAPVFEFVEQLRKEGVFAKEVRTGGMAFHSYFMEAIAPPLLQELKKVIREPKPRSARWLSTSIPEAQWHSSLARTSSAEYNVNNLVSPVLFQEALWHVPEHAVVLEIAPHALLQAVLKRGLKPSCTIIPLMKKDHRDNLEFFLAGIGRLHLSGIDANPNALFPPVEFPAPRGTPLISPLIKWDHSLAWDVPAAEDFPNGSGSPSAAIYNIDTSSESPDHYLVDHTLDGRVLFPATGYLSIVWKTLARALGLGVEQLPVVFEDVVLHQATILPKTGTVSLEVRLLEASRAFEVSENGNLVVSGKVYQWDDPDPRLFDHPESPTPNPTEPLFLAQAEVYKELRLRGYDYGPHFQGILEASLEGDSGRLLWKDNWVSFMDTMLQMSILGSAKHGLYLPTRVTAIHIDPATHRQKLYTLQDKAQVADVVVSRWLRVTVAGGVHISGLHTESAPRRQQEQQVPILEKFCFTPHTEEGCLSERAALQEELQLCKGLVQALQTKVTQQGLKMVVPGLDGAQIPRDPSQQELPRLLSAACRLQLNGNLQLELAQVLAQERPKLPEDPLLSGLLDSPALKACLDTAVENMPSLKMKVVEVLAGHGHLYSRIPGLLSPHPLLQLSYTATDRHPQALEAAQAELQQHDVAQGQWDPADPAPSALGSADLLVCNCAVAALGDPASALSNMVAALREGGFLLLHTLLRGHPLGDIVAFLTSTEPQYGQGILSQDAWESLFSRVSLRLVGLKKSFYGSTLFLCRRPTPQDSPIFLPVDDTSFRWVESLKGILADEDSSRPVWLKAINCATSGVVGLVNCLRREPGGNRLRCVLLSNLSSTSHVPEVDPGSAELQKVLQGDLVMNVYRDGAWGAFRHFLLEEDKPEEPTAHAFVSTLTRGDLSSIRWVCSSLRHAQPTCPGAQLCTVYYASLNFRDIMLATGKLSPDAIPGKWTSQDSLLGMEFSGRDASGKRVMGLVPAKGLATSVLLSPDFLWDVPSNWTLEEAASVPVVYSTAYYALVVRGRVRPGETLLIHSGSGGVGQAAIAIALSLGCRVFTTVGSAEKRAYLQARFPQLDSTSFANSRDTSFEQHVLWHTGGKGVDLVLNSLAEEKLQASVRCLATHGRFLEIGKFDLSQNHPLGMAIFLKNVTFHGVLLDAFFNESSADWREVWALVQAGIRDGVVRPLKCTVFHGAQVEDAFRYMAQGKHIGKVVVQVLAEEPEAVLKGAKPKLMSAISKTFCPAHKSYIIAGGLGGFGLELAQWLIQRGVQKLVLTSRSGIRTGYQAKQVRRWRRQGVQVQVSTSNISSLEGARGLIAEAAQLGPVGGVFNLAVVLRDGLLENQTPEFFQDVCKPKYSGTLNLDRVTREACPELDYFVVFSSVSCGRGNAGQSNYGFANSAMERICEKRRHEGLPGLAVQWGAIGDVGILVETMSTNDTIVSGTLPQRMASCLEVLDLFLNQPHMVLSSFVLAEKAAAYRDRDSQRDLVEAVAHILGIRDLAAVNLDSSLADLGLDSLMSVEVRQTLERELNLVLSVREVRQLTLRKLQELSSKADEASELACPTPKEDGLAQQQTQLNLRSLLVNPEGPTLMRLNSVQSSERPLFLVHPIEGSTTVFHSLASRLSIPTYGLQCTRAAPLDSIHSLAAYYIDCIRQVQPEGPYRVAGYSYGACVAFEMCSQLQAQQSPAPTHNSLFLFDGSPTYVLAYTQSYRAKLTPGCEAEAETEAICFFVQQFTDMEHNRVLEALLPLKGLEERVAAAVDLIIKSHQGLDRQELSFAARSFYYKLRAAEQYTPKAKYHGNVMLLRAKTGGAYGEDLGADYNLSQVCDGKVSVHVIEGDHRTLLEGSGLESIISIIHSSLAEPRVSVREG
# Excerpt: (§4) The human colon cancer cell lines CaCo2, LoVo, and SW620 were purchased from the Type Culture Collection of the Chinese Academy of Sciences (Shanghai, China). The CaCo2 cell line, originating from a human colon adenocarcinoma isolated in the 1970s, undergoes processes of proliferation, confluency, and differentiation during growth. […] LoVo, another cell line isolated in 1971 from the large intestine of a person with grade IV Dukes C colorectal cancer, offers applications in cancer, toxicology, and immuno-oncology research. SW620 cells, obtained from the large intestine of a person Dukes C colorectal cancer patient, are valuable resources for cancer and toxicology investigations. Cells were grown in Dulbecco’s Modified Eagle Medium (DMEM) supplemented with 10% fetal bovine serum (FBS) and were maintained in a humidified atmosphere containing 95% air and 5% CO2 at 37 °C.
# (§5) Cells were exposed to LR for 24 h, followed by collection through trypsinization, centrifugation, triple washing, and resuspension in cold PBS. Subsequently, the cells were sonicated at 4 °C and centrifuged at 12,000 rpm for 15 min at 4 °C to obtain particle-free supernatants. The intracellular FAS activity was assessed spectrophotometrically by measuring the reduction in absorbance at 340 nm due to the oxidation of NADPH. A total volume of 500 µL of buffer comprising 50 µL of particle-free supernatant, 25 mM of KH2PO4-K2HPO4 buffer, 0.25 mM of EDTA, 0.25 mM of dithiothreitol, 30 µM of acetyl-CoA, and 350 µM of NADPH (pH 7.0) was monitored at 340 nm for 1 min to establish baseline NADPH oxidation. Following the addition of […] of malonyl-CoA, the reaction was further monitored for 1 min to determine FAS-dependent NADPH oxidation.
# [3] = molecular target: T3, intracellular FAS activity in SW620 cells (Homo sapiens, UniProt P49327); test: Intracellular FAS activity assay; type: cell-based
# T3 construct: the cells were sonicated at 4 °C and centrifuged at 12,000 rpm for 15 min at 4 °C to obtain particle-free supernatants; endogenous in cells; host or cells: CaCo2, LoVo, SW620
# T3 sequence (P49327 whole entry): as above
# Excerpt: as §4, §5
# [4] = molecular target: T4, intracellular FAS activity in LoVo cells (Homo sapiens, UniProt P49327); test: Intracellular FAS activity assay; type: cell-based
# T4 construct: the cells were sonicated at 4 °C and centrifuged at 12,000 rpm for 15 min at 4 °C to obtain particle-free supernatants; endogenous in cells; host or cells: CaCo2, LoVo, SW620
# T4 sequence (P49327 whole entry): as above
# Excerpt: as §4, §5
# [5] = molecular target: T1, chicken liver FAS; test: Enzyme kinetics study, FAS overall reaction (double reciprocal plots); type: biochemical; details: LR 0-15.0 μg/mL
# Experimental: as §2
# (§6) Double reciprocal plots were generated for each inhibitor concentration to determine the competitive relationship between the variable substrate and inhibitor concentrations. This study focused on examining fast-binding inhibition.
# [6] = molecular target: T5, KR (a functional domain of FAS) (Gallus gallus, UniProt P12276); test: Enzyme kinetics study, KR reaction of FAS (double reciprocal plots); type: biochemical, chicken; details: NADPH variable substrate, LR 0-15.0 μg/mL
# T5 construct: The purification, storage, and application of the chicken liver FAS were conducted following established procedures; from tissue; host or cells: chicken liver (chickens from Huadu Broiler Corporation, Beijing)
# T5 sequence (P12276 whole entry, the tested form may be a part): as the sequence (P12276 whole entry) above
# Experimental: as §2, §6
# [7] = system: LoVo cells; test: Cell viability, MTT assay; type: cell-based, human; details: 24 h
# Excerpt: as §4
# (§7) LR was examined to evaluate its inhibition on the proliferation of CaCo2, LoVo, and SW620 cells. CaCo2, LoVo, and SW620 cells were grown in 96-well plates until reaching confluence and were treated with either DMSO (1:1000) or increasing doses of LR for 24 h at 37 °C. Following this, the cell medium was replaced with fresh medium containing 500 µg/mL MTT. After a 4-h incubation at 37 °C, the plates were decanted, and 150 µL of DMSO was added to dissolve the formazan crystals. Subsequently, the plate was analyzed using a microplate spectrophotometer (Multiskan, MK3) (Thermo Fisher Scientific Inc., Waltham, MA, USA) at a wavelength of 492 nm. Each experiment was conducted five times on three separate occasions.
# [8] = system: SW620 cells; test: Cell viability, MTT assay; type: cell-based, human
# Excerpt: as §4, §7
# [9] = system: CaCo2 cells; test: Cell viability, MTT assay; type: cell-based, human
# Excerpt: as §4, §7
# [10] = molecular target: T5, KR (a functional domain of FAS); test: KR reaction of FAS, fast-binding inhibition (ethyl acetoacetate, NADPH); type: biochemical, chicken
# Experimental: as §1
# as §2, with “For the KR reaction, the mixture included ethyl acetoacetate (40 mM), NADPH (35 µM), 1 mM of EDTA, and the enzyme (15 µg) in 100 mM of phosphate buffer at pH 7.0, with a total volume of 2.0 mL [41].” left out
# as §3
# [11] = fast-binding inhibition, 37 °C, mean ± SD, three experiments
# [12] = fast-binding inhibition, 37 °C, mean ± SD, three experiments, read-out: FAS Inhibitory Activity IC50 (converted)
# [13] = LR 25 μg/mL + palmitic acid 100 μM, 24 h, versus LR alone
smiles,measurement,setting,value
"CC1OC(OC2Cc3c(O)cc(O)cc3OC2c2ccc(O)cc2)C(O)C(O)C1O (stereo not shown) [AR, afzelechin-3-rhamnopyranoside]",FAS Inhibitory Activity IC50,[1]; [11],did not show a significant inhibitory effect
same,IC50,[1]; [12],> 476 µM
"O=C(O[C@@H]1Cc2c(O)cc(O)cc2O[C@@H]1c1cc(O)c(O)c(O)c1)c1cc(O)c(O)c(O)c1 [EGCG, epigallocatechin gallate, reference compound]",FAS Inhibitory Activity IC50,[1]; [11],24.8 ± 2.2 µg/mL
"COc1cc(C2c3c(cc(OC)c(O)c3OC)CC(CO)C2COC2OCC(O)C(O)C2O)cc(OC)c1O (stereo not drawn) [LA, lyoniresinol-3α-O-β-arabinopyranoside]",FAS Inhibitory Activity IC50,[1]; [11],did not show a significant inhibitory effect
same,IC50,[1]; [12],> 362 µM
"COc1cc(C2c3c(cc(OC)c(O)c3OC)CC(CO)C2COC2OC(C)C(O)C(O)C2O)cc(OC)c1O (stereo not drawn) [LR, lyoniresinol-3α-O-β-rhamnopyranoside]",IC50,[1]; [12],35.5 µM
same,IC50,"[1]; same value as 20.1 µg/mL given in molar unit, read-out: FAS inhibition IC50",35.5 µM
same,Relative FAS activity,[2],under 20%
same,IC50,[3]; 24 h treatment,38.5 µM
same,Relative FAS activity,"[3]; LR 60 µg/mL, 24 h",under 20%
same,IC50,[4]; 24 h treatment,45 µM
same,Relative FAS activity,"[4]; LR 60 µg/mL, 24 h",under 20%
same,Type of inhibition with respect to acetyl-CoA,[5]; acetyl-CoA variable substrate,competitively
same,Type of inhibition with respect to malonyl-CoA,[5]; malonyl-CoA variable substrate,noncompetitively
same,Type of inhibition with respect to NADPH,[6],competitively
same,IC50,"[7]; Homo sapiens, MTT",24.9 µg/mL
same,Cell viability with exogenous palmitic acid (rescue),"[7]; LR 25 μg/mL + palmitic acid 100 μM, versus LR alone",restored significantly
same,IC50,"[8]; Homo sapiens, SW-620, 24 h, MTT",22.1 µg/mL
same,Cell viability with exogenous palmitic acid (rescue),[8]; [13],restored significantly
same,IC50,"[9]; Homo sapiens, Caco-2, 24 h, MTT",28.4 µg/mL
same,Cell viability with exogenous palmitic acid (rescue),[9]; [13],restored significantly
same,IC50,[10],56.3 µM
